Test results reported in ChEMBL document CHEMBL1125011, “Potential antimitotic agents. Synthesis of some ethyl benzopyrazin-7-ylcarbamates, ethyl pyrido[3,4-b]pyrazin-7-ylcarbamates, and ethyl pyrido[3,4-e]-as-triazin-7-ylcarbamates” (J Med Chem, 1990).

What was measured:
[1] = test system: L1210; assay: (§1) Concentration that causes a mitotic index of 0.5 for cultured lymphoid leukemia L1210 cells was determined; assay type: functional, Mus musculus
[2] = test system: L1210; assay: Concentration required to inhibit 50% proliferation of cultured lymphoid leukemia L1210 cells was measured; assay type: functional, cell-based; conditions: Mus musculus
[3] = as §1; assay type: functional, Mus musculus

| Structure (SMILES) | MI0.5 [1] [µM] | IC50 [2] [µM] | MI0.5 [3] [µM] |
| --- | --- | --- | --- |
| CCOC(=O)c1cc(N)c2c(c1)NCC(c1ccccc1)=N2 | >10 | > 100 |  |
| CCOC(=O)Nc1cc2nc(O)c(-c3ccccc3)nc2c(N)n1 | 0.022 | 0.042 |  |
| CCOC(=O)Nc1cc2nnc(-c3ccccc3)nc2c(N)n1 |  | > 10 |  |
| COC(=O)Nc1cc(N)c2nc(-c3ccccc3)c(O)nc2c1 |  | 0.75 | 1.9 |
| COC(=O)Nc1cc(N)c2nc(-c3ccccc3)cnc2c1 |  | > 100 |  |
| CCOC(=O)Nc1cc2ncc(-c3ccccc3)nc2c(N)n1 |  | 0.3 |  |
| COC(=O)Nc1cc(N)c2c(c1)NCC(c1ccccc1)=N2 |  | 24 |  |
| CCOC(=O)c1cc(N)c2nc(-c3ccccc3)cnc2c1 | >10 | > 100 |  |
| CCOC(=O)Nc1cc2c(c(N)n1)NC(c1ccccc1)=NN2 |  | > 10 |  |
| CCOC(=O)Nc1cc2nc(N)c(-c3ccccc3)nc2c(N)n1 |  | > 30 |  |
| CCOC(=O)Nc1cc2c(c(N)n1)N=C(c1ccccc1)CN2 |  |  | 0.0028 |
